Assay results reported in US20090209460A1, “COMPOSITIONS AND METHODS FOR TREATING OBESITY AND RELATED METABOLIC DISORDERS” (Amylin Pharmaceuticals, Inc., priority 2005, published 2009).
Residues, ends and D or L forms follow the SMILES beside them.

How the values were obtained:
[1] = cumulative weight gain in rats with diet induced obesity (rat DIO), subcutaneous pump for seven days; format: in vivo; conditions: subcutaneously continuously by pump for seven days
Experimental: Both compounds were administered subcutaneously continuously by pump for seven days at the rate and dosage indicated.

[2] = molecular target: DPP-IV (Homo sapiens, UniProt P27487); assay: DPP-IV degradation; format: in vitro ADME; conditions: isolated DPP-IV peptidase, 25 mM HEPES buffer, 37 degrees C., 10 mM peptide, read-out: intact after contact with DPP-IV
Experimental: Peptide and peptidase were incubated in 25 mM HEPES buffer at 37 degrees C. at 10 mM peptide.

[3] = test system: NIH/Swiss mice; assay: acute food intake assay, lean overnight-fasted NIH/Swiss mice, intraperitoneal injection; format: in vivo, mouse; conditions: for Activity (percent decrease in cumulative food intake compared to the vehicle), AUC: intraperitoneal, timepoint 120 min
Summary of the method: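 Overnight-fasted lean female NIH/Swiss mice (8-24 weeks, group housed) received vehicle or peptide intraperitoneally at time 0, then pre-weighed standard chow. Food consumed was weighed at 30, 60 and 120 min and expressed as % change versus control.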

[4] = body weight and food intake in mice with diet induced obesity (mouse DIO), osmotic pump; format: in vivo; conditions: mouse DIO
Summary of the method: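 Male C57BL/6 mice, 4 weeks old at start, were fed a 58% kcal-fat diet for 4 weeks. Interscapular osmotic pumps then delivered peptide continuously at the indicated dose, or vehicle (50% DMSO in water or saline). Body weight and food intake were recorded weekly.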

[5] = test system: over-night fasted rats; assay: food intake in over-night fasted rats, given intraperitoneally; format: in vivo, rat; conditions: 0.1 to 1.5 mg/kg, 30 and 60 minutes
Experimental: FN38 in vehicle (10% DMSO in saline) was administered at 0.1 to 1.5 mg/kg. The food intake in grams and as a percent of vehicle are presented in FIGS. 4A and 4B at 30 and 60 minutes, respectively. FIG. 4C presents the same data plotted as grams of food consumed (intake) versus time. The results cannot be attributed to a locomotor effect (data not shown).

[6] = brush border membrane (BBM) stability assay; format: in vitro ADME, human
Summary of the method: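 Peptides digested up to 5 h at 37 °C with human brush border membrane extract (e.g. kidney). Timepoints quenched with 50% ACN, 1% FA, centrifuged, intact peptide quantified by selected-ion mass spectrometry. Expressed as percent stable.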

DPP-IV, sequence (P27487 whole entry, species assumed): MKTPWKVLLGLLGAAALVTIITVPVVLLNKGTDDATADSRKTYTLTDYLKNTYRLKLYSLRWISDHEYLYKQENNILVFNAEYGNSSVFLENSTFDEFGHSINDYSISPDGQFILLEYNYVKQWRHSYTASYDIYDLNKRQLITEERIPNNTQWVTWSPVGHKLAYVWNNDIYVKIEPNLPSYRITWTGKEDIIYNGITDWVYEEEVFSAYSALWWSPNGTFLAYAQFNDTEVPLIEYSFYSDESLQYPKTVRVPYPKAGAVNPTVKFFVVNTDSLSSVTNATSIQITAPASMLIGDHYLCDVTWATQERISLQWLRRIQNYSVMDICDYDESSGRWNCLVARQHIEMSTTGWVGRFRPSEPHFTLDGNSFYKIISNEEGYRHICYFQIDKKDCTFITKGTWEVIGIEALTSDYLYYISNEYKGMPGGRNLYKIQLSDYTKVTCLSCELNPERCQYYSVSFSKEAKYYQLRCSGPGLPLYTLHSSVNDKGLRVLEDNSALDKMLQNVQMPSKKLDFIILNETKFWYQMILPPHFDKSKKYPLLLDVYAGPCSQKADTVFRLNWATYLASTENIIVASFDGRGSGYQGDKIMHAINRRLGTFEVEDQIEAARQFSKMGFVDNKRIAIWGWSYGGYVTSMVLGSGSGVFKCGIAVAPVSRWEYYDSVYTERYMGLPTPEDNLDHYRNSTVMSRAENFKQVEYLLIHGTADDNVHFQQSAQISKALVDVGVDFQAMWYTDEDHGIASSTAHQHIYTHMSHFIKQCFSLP

For `CC(C)C[C@H](NC(=O)[C@H](CCCCN)NC(=O)[C@H](CCC(N)=O)NC(=O)[C@@H](NC(=O)[C@H](CCCCN)NC(=O)[C@H](CO)NC(=O)[C@H](Cc1ccc(O)cc1)NC(=O)[C@H](Cc1c[nH]cn1)NC(=O)[C@H](Cc1ccccc1)NC(=O)[C@H](CC(C)C)NC(=O)[C@@H](N)Cc1ccccc1)[C@@H](C)O)C(=O)NCC(=O)N[C@@H](CCCCN)C(=O)N[C@@H](CO)C(=O)N[C@@H](CC(N)=O)C(=O)N[C@H](C(=O)N[C@H](C(=O)N[C@@H](CCC(=O)O)C(=O)N[C@@H](CCC(=O)O)C(=O)N[C@@H](CC(C)C)C(=O)N[C@@H](CCC(N)=O)C(=O)N[C@@H](CO)C(=O)N1CCC[C@H]1C(=O)N[C@@H](Cc1ccccc1)C(=O)N[C@@H](C)C(=O)N[C@@H](CO)C(=O)N[C@@H](CCC(N)=O)C(=O)N[C@@H](CO)C(=O)N[C@@H](CCCNC(=N)N)C(=O)NCC(=O)N[C@@H](Cc1ccc(O)cc1)C(=O)N[C@@H](Cc1ccccc1)C(=O)N[C@@H](CC(C)C)C(=O)N[C@@H](Cc1ccccc1)C(=O)N[C@@H](CCCNC(=N)N)C(=O)N1CCC[C@H]1C(=O)N[C@@H](CCCNC(=N)N)C(=O)N[C@@H](CC(N)=O)C(N)=O)C(C)C)C(C)C` [Compound 163661] (H-FLFHYSKTQKLGKSNVVEELQSPFASQSRGYFLFRPRN-NH2; N-terminus assumed), the “cumulative weight gained in rat DIO (FIG. 5)” value [1] was “reduction of cumulative weight gained”, the remaining at 50 min, 10 mM [2] was about 100% and the “reduction of food intake” value ([3]; administered systemically (i.p. to mice), dose and time not stated) was 64%. For the same molecule, the “FI (60′, 200)” value ([3]; food intake, % change relative to control, 60 min, dose 200) was 0%, the “ED50 at t = 60” value ([3]; food intake, t = 60) was 4 nmol/kg and the “Activity (percent decrease in cumulative food intake compared to the vehicle), AUC” value ([3]; dose 0.3 nmol/kg) was 0%. For the same molecule, the “Activity (percent decrease in cumulative food intake compared to the vehicle), AUC” value ([3]; dose 1 nmol/kg) was −23%, the “Activity (percent decrease in cumulative food intake compared to the vehicle), AUC” value ([3]; dose 3 nmol/kg) was −25% and the “Activity (percent decrease in cumulative food intake compared to the vehicle), AUC” value ([3]; dose 10 nmol/kg) was −48%. The “Activity (percent decrease in cumulative food intake compared to the vehicle), AUC” value ([3]; dose 30 nmol/kg) was −58%, the “Activity (percent decrease in cumulative food intake compared to the vehicle), AUC” value ([3]; dose 100 nmol/kg) was −72% and the “Activity (percent decrease in cumulative food intake compared to the vehicle), AUC” value ([3]; dose 300 nmol/kg) was −60%. The “Activity (percent decrease in cumulative food intake compared to the vehicle), AUC” value ([3]; dose 1000 ug/kg) was −46%, the “Food Intake Inhibition” value ([3]; mouse assay, dose of 200 mg/kg, measured at 60 minutes) was −46% and the “ED50 for effect on food intake” value ([3]; over 30 min, i.p., mice) was 8.6 nmol/kg. The “d 2 BWt loss” value ([4]; day 2) was 6.5%, the “d 7 BWt loss” value ([4]; day 7) was 4.3% and the “effect on food intake in over-night fasted rats” value [5] was “inhibiting food intake”. It also gave a remaining at 5 h ([6]; brush border membrane extract (e.g. kidney), percent compound remaining after a 5 hour incubation, human brush border membrane assay, read-out: hBBM) of 62% and a BBM ([6]; percent of stable, human brush border membrane extracts, five hours, 37° C.) of 62%.
